Test results: PubChem BioAssay AID330 (DTP/NCI, 2004)
Where “and” joins values, the source holds several entries; their conditions need not be identical. Equal entries are not always repeated. Toxic doses and inconclusive results are not listed.

System: P388 leukemia ip, CD2F1 mice, survival T/C
Assay: NCI In Vivo Anticancer Drug Screen. Data for tumor model P388 Leukemia (intraperitoneal) in CD2F1 (CDF1) mice
Details: endpoint: median survival time, higher = longer survival
Procedure, shortened: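 Mice carrying the transplanted tumor received test compound or vehicle. Survival was recorded in each group, and the value is the treated-group measurement divided by that of the vehicle-treated control group.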

CN(Cc1cnc2nc(N)nc(N)c2n1)c1ccc(C(=O)N[C@@H](CCC(=O)O)C(=O)O)cc1
T/C (dose: 0.09 mg/kg/injection, schedule: Q01DX009 (ip), vehicle: sodium bicarbonate): 120 % of control
T/C (dose: 0.18 mg/kg/injection, schedule: Q01DX009 (ip), vehicle: sodium bicarbonate): 113 % of control
T/C (dose: 0.25 mg/kg/injection, schedule: Q01DX005 (ip), vehicle: sodium bicarbonate): 117 % of control
T/C (dose: 0.25 mg/kg/injection, schedule: Q01DX009 (ip), vehicle: sodium bicarbonate): 150 % of control and 154 % of control
T/C (dose: 0.32 mg/kg/injection, schedule: Q01DX009 (ip), vehicle: sodium bicarbonate): 166 % of control and 168 % of control
T/C (dose: 0.38 mg/kg/injection, schedule: Q01DX009 (ip), vehicle: other): 163 % of control
T/C (dose: 0.38 mg/kg/injection, schedule: Q01DX009 (ip), vehicle: saline): 169 % of control
T/C (dose: 0.38 mg/kg/injection, schedule: Q## X009 (ip), vehicle: sodium bicarbonate): 154 % of control
T/C (dose: 0.48 mg/kg/injection, schedule: Q01DX009 (ip), vehicle: sodium bicarbonate): 168 % of control
T/C (dose: 0.5 mg/kg/injection, schedule: Q01DX009 (ip), vehicle: sodium bicarbonate): 176 % of control and 177 % of control
T/C (dose: 0.54 mg/kg/injection, schedule: Q01DX009 (ip), vehicle: sodium bicarbonate): 175 % of control and 180 % of control
T/C (dose: 0.6 mg/kg/injection, schedule: Q01DX009 (ip), vehicle: clinical formulation): 164 % of control
T/C (dose: 0.62 mg/kg/injection, schedule: Q01DX005 (ip), vehicle: sodium bicarbonate): 158 % of control
T/C (dose: 0.73 mg/kg/injection, schedule: Q01DX009 (ip), vehicle: sodium bicarbonate): 184 % of control
T/C (dose: 0.75 mg/kg/injection, schedule: Q01DX005 (ip), vehicle: sodium bicarbonate): 166 % of control
T/C (dose: 0.75 mg/kg/injection, schedule: Q01DX009 (ip), vehicle: other): 195 % of control
T/C (dose: 0.75 mg/kg/injection, schedule: Q01DX009 (ip), vehicle: saline): 200 % of control
T/C (dose: 0.75 mg/kg/injection, schedule: Q01DX015 (ip), vehicle: sodium bicarbonate): 186 % of control
T/C (dose: 0.75 mg/kg/injection, schedule: Q## X009 (ip), vehicle: sodium bicarbonate): 190 % of control
T/C (dose: 0.8 mg/kg/injection, schedule: Q01DX009 (ip), vehicle: clinical formulation): 164 % of control
T/C (dose: 1.0 mg/kg/injection, schedule: Q01DX009 (ip), vehicle: clinical formulation): 180 % of control
T/C (dose: 1.0 mg/kg/injection, schedule: Q01DX009 (ip), vehicle: sodium bicarbonate): 177 % of control and 194 % of control and 195 % of control
T/C (dose: 1.0 mg/kg/injection, schedule: Q02DX005 (ip), vehicle: sodium bicarbonate): 160 % of control
T/C (dose: 1.1 mg/kg/injection, schedule: Q01DX009 (ip), vehicle: sodium bicarbonate): 192 % of control
T/C (dose: 1.2 mg/kg/injection, schedule: Q01DX009 (ip), vehicle: clinical formulation): 189 % of control
T/C (dose: 1.25 mg/kg/injection, schedule: Q01DX005 (ip), vehicle: sodium bicarbonate): 182 % of control
T/C (dose: 1.3 mg/kg/injection, schedule: Q01DX009 (ip), vehicle: sodium bicarbonate): 196 % of control
T/C (dose: 1.5 mg/kg/injection, schedule: Q01DX005 (ip), vehicle: sodium bicarbonate): 182 % of control
T/C (dose: 1.7 mg/kg/injection, schedule: Q01DX009 (ip), vehicle: sodium bicarbonate): 106 % of control
T/C (dose: 1.75 mg/kg/injection, schedule: Q01DX005 (ip), vehicle: sodium bicarbonate): 182 % of control
T/C (dose: 2.0 mg/kg/injection, schedule: Q01DX005 (iv), vehicle: sodium bicarbonate): 161 % of control
T/C (dose: 2.0 mg/kg/injection, schedule: Q02DX005 (ip), vehicle: saline): 105 % of control
T/C (dose: 2.0 mg/kg/injection, schedule: Q02DX005 (ip), vehicle: sodium bicarbonate): 163 % of control and 192 % of control
T/C (dose: 2.3 mg/kg/injection, schedule: Q04DX003 (ip), vehicle: saline): 181 % of control
T/C (dose: 2.5 mg/kg/injection, schedule: Q01DX005 (ip), vehicle: sodium bicarbonate): 187 % of control
T/C (dose: 2.5 mg/kg/injection, schedule: Q01DX006 (ip), vehicle: sodium bicarbonate): 179 % of control
T/C (dose: 2.5 mg/kg/injection, schedule: Q04DX003 (ip), vehicle: sodium bicarbonate): 183 % of control
T/C (dose: 3.0 mg/kg/injection, schedule: Q01DX006 (ip), vehicle: sodium bicarbonate): 170 % of control
T/C (dose: 3.0 mg/kg/injection, schedule: Q01DX015 (ip), vehicle: sodium bicarbonate): 110 % of control
T/C (dose: 3.0 mg/kg/injection, schedule: Q02DX005 (ip), vehicle: saline): 105 % of control
T/C (dose: 3.0 mg/kg/injection, schedule: Q02DX005 (ip), vehicle: sodium bicarbonate): 182 % of control
T/C (dose: 3.0 mg/kg/injection, schedule: Q## X009 (ip), vehicle: sodium bicarbonate): 118 % of control
T/C (dose: 3.13 mg/kg/injection, schedule: Q01DX001 (ip), vehicle: sodium bicarbonate): 122 % of control
T/C (dose: 3.5 mg/kg/injection, schedule: Q01DX006 (ip), vehicle: sodium bicarbonate): 187 % of control
T/C (dose: 4.0 mg/kg/injection, schedule: Q01DX005 (iv), vehicle: sodium bicarbonate): 190 % of control
T/C (dose: 4.32 mg/kg/injection, schedule: Q04DX003 (ip), vehicle: sodium bicarbonate): 171 % of control
T/C (dose: 4.5 mg/kg/injection, schedule: Q04DX003 (ip), vehicle: sodium bicarbonate): 174 % of control
T/C (dose: 4.6 mg/kg/injection, schedule: Q04DX003 (ip), vehicle: saline): 204 % of control
T/C (dose: 5.0 mg/kg/injection, schedule: Q04DX003 (ip), vehicle: sodium bicarbonate): 189 % of control
T/C (dose: 5.18 mg/kg/injection, schedule: Q04DX003 (ip), vehicle: sodium bicarbonate): 180 % of control
T/C (dose: 6.48 mg/kg/injection, schedule: Q04DX003 (ip), vehicle: sodium bicarbonate): 182 % of control
T/C (dose: 7.2 mg/kg/injection, schedule: Q04DX003 (ip), vehicle: sodium bicarbonate): 199 % of control
T/C (dose: 7.78 mg/kg/injection, schedule: Q04DX002 (ip), vehicle: sodium bicarbonate): 171 % of control
T/C (dose: 8.64 mg/kg/injection, schedule: Q04DX003 (ip), vehicle: sodium bicarbonate): 201 % of control
T/C (dose: 9.0 mg/kg/injection, schedule: Q04DX003 (ip), vehicle: sodium bicarbonate): 116 % of control
T/C (dose: 9.0 mg/kg/injection, schedule: Q04DX003 (iv), vehicle: sodium bicarbonate): 174 % of control
T/C (dose: 9.72 mg/kg/injection, schedule: Q04DX002 (ip), vehicle: sodium bicarbonate): 175 % of control
T/C (dose: 10.0 mg/kg/injection, schedule: Q04DX004 (ip), vehicle: sodium bicarbonate): 189 % of control
T/C (dose: 10.8 mg/kg/injection, schedule: Q04DX003 (ip), vehicle: sodium bicarbonate): 202 % of control
T/C (dose: 13.0 mg/kg/injection, schedule: Q04DX002 (ip), vehicle: sodium bicarbonate): 165 % of control
T/C (dose: 14.4 mg/kg/injection, schedule: Q04DX003 (ip), vehicle: sodium bicarbonate): 181 % of control
T/C (dose: 15.0 mg/kg/injection, schedule: Q04DX003 (ip), vehicle: sodium bicarbonate): 117 % of control
T/C (dose: 16.2 mg/kg/injection, schedule: Q04DX002 (ip), vehicle: sodium bicarbonate): 195 % of control
T/C (dose: 18.0 mg/kg/injection, schedule: Q01DX001 (ip), vehicle: sodium bicarbonate): 173 % of control
T/C (dose: 18.0 mg/kg/injection, schedule: Q04DX003 (ip), vehicle: sodium bicarbonate): 114 % of control
T/C (dose: 18.0 mg/kg/injection, schedule: Q04DX003 (iv), vehicle: sodium bicarbonate): 194 % of control
T/C (dose: 18.4 mg/kg/injection, schedule: Q04DX003 (ip), vehicle: saline): 177 % of control
T/C (dose: 20.0 mg/kg/injection, schedule: Q04DX004 (ip), vehicle: sodium bicarbonate): 189 % of control
T/C (dose: 21.6 mg/kg/injection, schedule: Q04DX002 (ip), vehicle: sodium bicarbonate): 191 % of control
T/C (dose: 25.0 mg/kg/injection, schedule: Q04DX002 (ip), vehicle: sodium bicarbonate): 115 % of control
T/C (dose: 25.0 mg/kg/injection, schedule: Q04DX004 (ip), vehicle: sodium bicarbonate): 180 % of control
T/C (dose: 27.0 mg/kg/injection, schedule: Q04DX002 (ip), vehicle: sodium bicarbonate): 201 % of control
T/C (dose: 33.3 mg/kg/injection, schedule: Q01DX001 (ip), vehicle: sodium bicarbonate): 109 % of control
T/C (dose: 36.0 mg/kg/injection, schedule: Q01DX001 (ip), vehicle: sodium bicarbonate): 150 % of control
T/C (dose: 36.0 mg/kg/injection, schedule: Q01DX001 (iv), vehicle: sodium bicarbonate): 156 % of control
T/C (dose: 36.0 mg/kg/injection, schedule: Q04DX003 (iv), vehicle: sodium bicarbonate): 124 % of control
T/C (dose: 40.0 mg/kg/injection, schedule: Q01DX001 (ip), vehicle: sodium bicarbonate): 150 % of control
T/C (dose: 42.0 mg/kg/injection, schedule: Q04DX002 (ip), vehicle: sodium bicarbonate): 105 % of control
T/C (dose: 45.0 mg/kg/injection, schedule: Q04DX002 (ip), vehicle: sodium bicarbonate): 200 % of control
T/C (dose: 50.0 mg/kg/injection, schedule: Q04DX003 (ip), vehicle: sodium bicarbonate): 111 % of control
T/C (dose: 72.0 mg/kg/injection, schedule: Q01DX001 (iv), vehicle: sodium bicarbonate): 161 % of control
T/C (dose: 100.0 mg/kg/injection, schedule: Q01DX001 (ip), vehicle: sodium bicarbonate): 158 % of control and 161 % of control
T/C (dose: 125.0 mg/kg/injection, schedule: Q01DX001 (ip), vehicle: sodium bicarbonate): 166 % of control
T/C (dose: 150.0 mg/kg/injection, schedule: Q01DX001 (ip), vehicle: sodium bicarbonate): 158 % of control
T/C (dose: 200.0 mg/kg/injection, schedule: Q01DX001 (ip), vehicle: sodium bicarbonate): 170 % of control
T/C (dose: 400.0 mg/kg/injection, schedule: Q01DX001 (ip), vehicle: sodium bicarbonate): 181 % of control
